Measured values as given in patent US8952169B2 (Genentech, Inc., priority 2012, dated 2015).

What was measured:
[1] = biological target: T1, hNav1.7 (Homo sapiens (Human), UniProt Q15858); experiment: Tritiated aryl sulfonamide binding to membranes from cells expressing hNav1.7 and the β1 subunit (competitive binding); details: read-out: NaV1.7 395 Memb Binding (IC50)
Summary of the method: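 Competitive displacement of 100 μM [3H]-labelled tritiated aryl sulfonamide from hNav1.7/β1 membranes, 18 h at room temperature in 100 mM NaCl, 20 mM Tris HCl pH 7.4. Non-specific binding defined with 1 μM unlabelled compound. Filter-bound radioactivity measured by liquid scintillation counting.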

[2] = biological target: hNav1.5 (Homo sapiens (Human), UniProt Q14524); experiment: Patch voltage clamp electrophysiology (PatchXpress), HEK-293 cells, inactivated state block; details: read-out: EP_PX 293 hNav1.5 (IC50), β1 coexpressed, holding −60 mV;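 further: control was the sodium current recorded in 0.5% DMSO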
[3] = biological target: T1, hNav1.7; experiment: as above; assay type: cell-based; details: read-out: EP_PX 293 hNav1.7 (IC50)
[4] = membranes with hNav1.7 and β1 subunit, [3H]compound displacement, 18 h, room temperature
[5] = HEK-293 cells, β1 coexpressed, inactivated state, holding −60 mV

T1 sequence (Q15858 whole entry, looked up): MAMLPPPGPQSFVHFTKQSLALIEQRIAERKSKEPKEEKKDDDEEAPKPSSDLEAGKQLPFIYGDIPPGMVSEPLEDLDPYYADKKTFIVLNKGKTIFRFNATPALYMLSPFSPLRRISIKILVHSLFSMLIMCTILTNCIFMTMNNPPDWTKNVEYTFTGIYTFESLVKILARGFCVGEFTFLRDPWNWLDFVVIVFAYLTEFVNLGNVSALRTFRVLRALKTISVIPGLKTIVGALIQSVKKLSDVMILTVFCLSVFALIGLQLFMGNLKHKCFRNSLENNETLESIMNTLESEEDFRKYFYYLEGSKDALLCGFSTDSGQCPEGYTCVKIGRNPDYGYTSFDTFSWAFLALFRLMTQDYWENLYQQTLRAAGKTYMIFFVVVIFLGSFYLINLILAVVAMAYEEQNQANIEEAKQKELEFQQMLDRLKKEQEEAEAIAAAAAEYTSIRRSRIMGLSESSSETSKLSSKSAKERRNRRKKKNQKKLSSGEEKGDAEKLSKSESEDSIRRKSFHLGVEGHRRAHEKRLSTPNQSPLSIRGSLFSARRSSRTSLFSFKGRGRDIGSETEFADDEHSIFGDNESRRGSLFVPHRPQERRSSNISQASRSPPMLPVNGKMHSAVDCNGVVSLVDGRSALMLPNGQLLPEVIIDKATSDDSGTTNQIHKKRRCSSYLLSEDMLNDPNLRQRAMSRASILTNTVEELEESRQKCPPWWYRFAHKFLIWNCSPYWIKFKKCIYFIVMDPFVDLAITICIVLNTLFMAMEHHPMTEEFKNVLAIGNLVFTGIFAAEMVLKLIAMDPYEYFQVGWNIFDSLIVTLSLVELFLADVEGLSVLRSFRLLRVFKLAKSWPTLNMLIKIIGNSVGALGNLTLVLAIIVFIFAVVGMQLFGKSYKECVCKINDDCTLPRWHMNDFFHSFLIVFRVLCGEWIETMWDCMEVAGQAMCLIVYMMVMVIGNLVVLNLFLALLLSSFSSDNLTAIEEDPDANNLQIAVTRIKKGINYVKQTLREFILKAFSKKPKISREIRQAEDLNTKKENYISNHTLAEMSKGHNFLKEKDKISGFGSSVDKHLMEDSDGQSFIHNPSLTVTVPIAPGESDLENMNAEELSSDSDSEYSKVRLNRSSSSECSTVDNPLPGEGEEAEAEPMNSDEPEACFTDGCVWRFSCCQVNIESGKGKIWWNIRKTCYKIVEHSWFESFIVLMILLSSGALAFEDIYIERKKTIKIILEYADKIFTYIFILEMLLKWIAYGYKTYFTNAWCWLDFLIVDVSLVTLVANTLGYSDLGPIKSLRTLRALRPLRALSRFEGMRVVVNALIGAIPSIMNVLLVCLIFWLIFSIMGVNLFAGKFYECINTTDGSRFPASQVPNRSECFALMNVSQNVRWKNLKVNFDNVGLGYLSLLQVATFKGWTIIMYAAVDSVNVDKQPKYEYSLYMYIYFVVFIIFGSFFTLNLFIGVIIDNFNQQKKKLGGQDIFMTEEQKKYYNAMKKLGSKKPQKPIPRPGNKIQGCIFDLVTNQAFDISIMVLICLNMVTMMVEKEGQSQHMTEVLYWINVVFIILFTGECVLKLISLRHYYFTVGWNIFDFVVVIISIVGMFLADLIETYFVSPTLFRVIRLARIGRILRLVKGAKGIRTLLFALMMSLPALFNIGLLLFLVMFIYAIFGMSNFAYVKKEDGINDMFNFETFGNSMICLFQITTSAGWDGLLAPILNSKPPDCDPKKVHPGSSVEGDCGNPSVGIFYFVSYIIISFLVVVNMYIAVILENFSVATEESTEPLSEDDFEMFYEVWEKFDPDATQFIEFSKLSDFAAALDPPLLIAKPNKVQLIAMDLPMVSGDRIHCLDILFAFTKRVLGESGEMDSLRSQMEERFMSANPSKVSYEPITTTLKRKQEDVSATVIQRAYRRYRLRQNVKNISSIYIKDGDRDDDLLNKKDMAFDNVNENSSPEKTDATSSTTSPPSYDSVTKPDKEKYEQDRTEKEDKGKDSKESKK
T1 sequence (Q07699 whole entry partner, looked up): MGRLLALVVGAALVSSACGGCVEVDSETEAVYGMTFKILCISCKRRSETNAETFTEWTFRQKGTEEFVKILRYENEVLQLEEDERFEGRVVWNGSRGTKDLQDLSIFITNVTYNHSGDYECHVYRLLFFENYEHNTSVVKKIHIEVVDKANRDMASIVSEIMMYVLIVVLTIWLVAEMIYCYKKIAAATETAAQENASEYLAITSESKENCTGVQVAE
Sequence of hNav1.5 (Q14524 whole entry): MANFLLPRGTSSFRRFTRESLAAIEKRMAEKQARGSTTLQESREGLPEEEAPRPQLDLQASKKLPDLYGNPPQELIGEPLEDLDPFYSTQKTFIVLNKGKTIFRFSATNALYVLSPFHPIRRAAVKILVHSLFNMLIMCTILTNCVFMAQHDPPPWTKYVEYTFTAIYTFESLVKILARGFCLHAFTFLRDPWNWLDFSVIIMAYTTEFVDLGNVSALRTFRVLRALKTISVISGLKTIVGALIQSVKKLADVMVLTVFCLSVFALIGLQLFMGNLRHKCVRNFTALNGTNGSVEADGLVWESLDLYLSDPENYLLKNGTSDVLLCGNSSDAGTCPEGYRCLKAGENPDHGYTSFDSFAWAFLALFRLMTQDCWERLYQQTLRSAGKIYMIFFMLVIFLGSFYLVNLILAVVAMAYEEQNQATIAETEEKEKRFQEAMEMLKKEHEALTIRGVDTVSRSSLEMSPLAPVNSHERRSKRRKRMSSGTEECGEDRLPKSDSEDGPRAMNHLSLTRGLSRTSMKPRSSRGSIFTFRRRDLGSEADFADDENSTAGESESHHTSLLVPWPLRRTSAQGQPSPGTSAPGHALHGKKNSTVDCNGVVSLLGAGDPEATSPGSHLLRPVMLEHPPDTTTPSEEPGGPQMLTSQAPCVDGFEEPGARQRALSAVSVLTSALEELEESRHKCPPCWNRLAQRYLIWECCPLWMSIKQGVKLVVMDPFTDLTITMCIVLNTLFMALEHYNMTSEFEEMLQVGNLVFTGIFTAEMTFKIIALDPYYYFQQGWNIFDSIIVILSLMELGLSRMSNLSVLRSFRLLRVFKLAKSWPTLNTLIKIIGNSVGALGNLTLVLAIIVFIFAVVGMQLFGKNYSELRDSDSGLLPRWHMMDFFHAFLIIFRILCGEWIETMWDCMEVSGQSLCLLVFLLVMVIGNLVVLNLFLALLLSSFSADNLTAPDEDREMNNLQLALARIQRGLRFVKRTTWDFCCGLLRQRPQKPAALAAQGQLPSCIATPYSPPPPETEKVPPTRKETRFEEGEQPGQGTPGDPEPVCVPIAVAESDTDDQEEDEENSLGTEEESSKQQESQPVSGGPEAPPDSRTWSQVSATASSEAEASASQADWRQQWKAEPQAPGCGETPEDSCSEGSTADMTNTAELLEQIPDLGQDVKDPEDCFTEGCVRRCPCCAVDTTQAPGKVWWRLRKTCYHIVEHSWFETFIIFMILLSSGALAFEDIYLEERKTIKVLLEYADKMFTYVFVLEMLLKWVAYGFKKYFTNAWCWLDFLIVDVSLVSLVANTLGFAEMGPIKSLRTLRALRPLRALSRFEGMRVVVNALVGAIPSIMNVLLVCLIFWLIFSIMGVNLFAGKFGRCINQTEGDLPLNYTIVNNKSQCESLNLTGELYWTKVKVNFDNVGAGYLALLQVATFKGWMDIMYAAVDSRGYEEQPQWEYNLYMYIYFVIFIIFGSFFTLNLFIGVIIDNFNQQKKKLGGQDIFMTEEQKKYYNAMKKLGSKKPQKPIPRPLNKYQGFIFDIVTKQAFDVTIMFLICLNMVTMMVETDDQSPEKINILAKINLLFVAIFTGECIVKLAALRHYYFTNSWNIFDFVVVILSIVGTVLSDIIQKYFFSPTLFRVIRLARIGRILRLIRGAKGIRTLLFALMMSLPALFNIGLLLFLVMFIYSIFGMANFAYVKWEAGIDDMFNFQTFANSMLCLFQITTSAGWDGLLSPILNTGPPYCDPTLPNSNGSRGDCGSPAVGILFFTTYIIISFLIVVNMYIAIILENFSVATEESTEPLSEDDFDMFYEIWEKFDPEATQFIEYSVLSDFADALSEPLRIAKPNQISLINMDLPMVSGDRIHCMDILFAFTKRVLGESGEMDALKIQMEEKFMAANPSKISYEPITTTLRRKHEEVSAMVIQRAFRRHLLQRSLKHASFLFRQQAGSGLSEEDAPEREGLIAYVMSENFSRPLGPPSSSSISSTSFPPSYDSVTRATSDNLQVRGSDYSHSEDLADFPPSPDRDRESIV

Structure (SMILES)	IC50 [1, 4] [nM]	IC50 [2] [nM]	IC50 [3, 5] [nM]	IC50 [1] [nM]	IC50 [3] [nM]
CN(C)S(=O)(=O)NC(=O)c1cc(Cl)c(OC2CC3CC2C2CCCC32)cc1F (stereo not drawn)	535	7820	–	–	–
CS(=O)(=O)NC(=O)c1cc(Cl)c(OCC2CC3C4CCC(C4)C3C2)cc1F (stereo not drawn)	9	743	3.6	–	–
O=C(NS(=O)(=O)C1CC1)c1cc(Cl)c(OCC23CC4CC(CC(C4)C2)C3)cc1F	–	427	–	–	–
O=C(NS(=O)(=O)N1CC[C@H](O)C1)c1cc(C2CC2)c(OCC23CC4CC(CC(C4)C2)C3)cc1F	10	110	–	–	–
O=C(NS(=O)(=O)N1CC(F)C1)c1cc(C2CC2)c(OCC23CC4CC(CC(C4)C2)C3)cc1F	1	422	–	–	–
O=C(NS(=O)(=O)N1CC(F)(F)C1)c1cc(C2CC2)c(OCC23CC4CC(CC(C4)C2)C3)cc1F	10	326	–	–	–
CS(=O)(=O)NC(=O)c1cc(C2CC2)c(OCC2CCC(F)(F)CC2)cc1F	–	5230	–	–	–
O=C(NS(=O)(=O)NCCCO)c1cc(C2CC2)c(OCC23CC4CC(CC(C4)C2)C3)cc1F	23	22	9.2	–	–
COC1CN(S(=O)(=O)NC(=O)c2cc(C3CC3)c(OCC34CC5CC(CC(C5)C3)C4)cc2F)C1	3	144	24.9	–	–
O=C(NS(=O)(=O)N1CCC1)c1cc(C2CC2)c(OCC2CCCCC2)cc1F	–	40	–	6	1
COCCS(=O)(=O)NC(=O)c1cc(C2CC2)c(OCC2CCCCC2)cc1F	–	140	–	–	–
O=C(NS(=O)(=O)N1CCC1)c1cc(C2CC2)c(OCC2C3CC4CC(C3)CC2C4)cc1F (stereo not drawn)	1	130	9	–	–
CS(=O)(=O)NC(=O)c1cc(C2CC2)c(OCC23CC4(F)CC(F)(CC(F)(C4)C2)C3)cc1F	14	3500	20	–	–
O=C(NS(=O)(=O)C1CC1)c1cc(C2CC2)c(OCC2CCC(F)(F)CC2)cc1F	6	630	8	–	–
O=C(NS(=O)(=O)C1CC1)c1cc(C2CC2)c(OCC23CC4(F)CC(F)(CC(F)(C4)C2)C3)cc1F	5	430	20	–	–
O=C(NS(=O)(=O)N1CCC1)c1cc(C2CC2)c(OCC2(C(F)(F)F)CCCC2)cc1F	4	90	2	–	–
O=C(NS(=O)(=O)C1CC1)c1cc(C2CC2)c(OCC23CC4CC(C2)C(F)(F)C(C4)C3)cc1F	3	130	8	–	–
O=C(NS(=O)(=O)N1CCC1)c1cc(C2CC2)c(OCC23CCCCC2C3)cc1F (stereo not drawn)	6	160	2	–	–

Structure (SMILES)	IC50 [1, 4] [nM]	IC50 [2] [nM]	IC50 [3, 5] [nM]	IC50 [1] [nM]	IC50 [3] [nM]
O=C(NS(=O)(=O)N1CCC1)c1cnc(OCC23CC4CC(CC(C4)C2)C3)c(C2CC2)c1	290	7500	63	–	–
COCCS(=O)(=O)NC(=O)c1cnc(OCC23CC4CC(CC(C4)C2)C3)c(C2CC2)c1	720	15300	370	–	–
O=C(NS(=O)(=O)N1CCC1)c1cc(C2CC2)c(O[C@H]2C3CC4CC2C[C@](Cl)(C4)C3)cc1F	9	21600	30	–	–
CS(=O)(=O)NC(=O)c1cnc(OCC23CC4CC(CC(C4)C2)C3)c(C2CC2)c1	72	2580	17.9	–	–
O=C(NS(=O)(=O)N1CC(O)C1)c1cc(C2CC2)c(OCC23CC4CC(CC(C4)C2)C3)cc1F	7	60.6	10.7	–	–
CS(=O)(=O)NC(=O)c1ccc(OCC23CC4CC(CC(C4)C2)C3)c(Br)c1	51	1950	7.6	–	–
CC1(C)[C@H]2CC[C@H](COc3cc(F)c(C(=O)NS(C)(=O)=O)cc3Cl)[C@@H]1C2	12	1070	–	–	–
CS(=O)(=O)NC(=O)c1ccc(OCC23CC4CC(CC(C4)C2)C3)c(C2CC2)c1	3	700	1.31	–	–
CN(C)S(=O)(=O)NC(=O)c1cc(Cl)c(OCC23CC4CC(C2)C(F)(F)C(C4)C3)cc1F [Example 92]	221	3760	53.1	–	–
O=C(NS(=O)(=O)N1CCC1)c1cc(C2CC2)c(OCC2CCC(C(F)(F)F)CC2)cc1F (stereo not drawn) [Example 429, N-(azetidin-1-ylsulfonyl)-5-cyclopropyl-2-fluoro-4-[[4-(trifluoromethyl)cyclohexyl]methoxy]benzamide]	8	–	100	–	–
O=C(NS(=O)(=O)C1CC1)c1cc(C2CC2)c(OCC23CCCCC2C3(F)F)cc1F (stereo not drawn) [Example 430, 5-cyclopropyl-N-cyclopropylsulfonyl-4-[(7,7-difluoronorcaran-1-yl)methoxy]-2-fluoro-benzamide]	3	–	10	–	–
O=C(NS(=O)(=O)N1CCC1)c1cc(C2CC2)c(OCC23CCCCC2C3(F)F)cc1F (stereo not drawn) [Example 431, N-(azetidin-1-ylsulfonyl)-5-cyclopropyl-4-[(7,7-difluoronorcaran-1-yl)methoxy]-2-fluoro-benzamide]	13	–	10	–	–
O=C(NS(=O)(=O)N1CCC1)c1cc(C2CC2)c(OCC2CCC3CC3C2)cc1F (stereo not drawn) [Example 432, N-(azetidin-1-ylsulfonyl)-5-cyclopropyl-2-fluoro-4-(norcaran-3-ylmethoxy)benzamide]	22	–	32	–	–
CS(=O)(=O)NC(=O)c1cc(C2CC2)c(OCC2CN(C(c3ccccc3)c3ccccc3)C2)cc1F [Example 440, 4-((1-benzhydrylazetidin-3-yl)methoxy)-5-cyclopropyl-2-fluoro-N-(methylsulfonyl)benzamide]	11	2540	14	–	–
CS(=O)(=O)NC(=O)c1cc(Cl)c(OCC2CC3C4CCC(C4)C3C2)cc1F (stereo not drawn) [Example 445]	9.3	743	3.6	–	–
O=C(NS(=O)(=O)C1CC1)c1cc(C2CC2)c(OCC2(C(F)(F)F)CCCCC2)cc1F [Example 446, 5-cyclopropyl-N-(cyclopropylsulfonyl)-2-fluoro-4-((1-(trifluoromethyl)-cyclohexyl)methoxy)benzamide]	1.6	160	3.1	–	–
O=C(NS(=O)(=O)N1CCC1)c1cc(C2CC2)c(OCC2CCC(F)(F)CC2)cc1F [Example 448, N-(azetidin-1-ylsulfonyl)-5-cyclopropyl-4-((4,4-difluorocyclohexyl)-methoxy)-2-fluorobenzamide]	18	940	7.8	–	–
